Where two headings read alike, the source gives them in different places.
How the values were obtained:
[1] = system: Mycosphaerella graminicola; Anamorph: Septoria tritici; Bayer Code SEPTTR; assay: Fungicidal activity: leaf blotch of wheat, protectant and curative treatment of inoculated wheat plants; type: in vivo; conditions: Zymoseptoria tritici
Method: Evaluation of Fungicidal Activity: Leaf Blotch of Wheat (Mycosphaerella graminicola; Anamorph: Septoria tritici; Bayer Code SEPTTR)
Wheat plants (variety Yuma) were grown from seed in a greenhouse in 50% mineral soil/50% soil-less Metro mix until the first leaf was fully emerged, with 7-10 seedlings per pot. These plants were inoculated with an aqueous spore suspension of Septoria tritici either prior to or after fungicide treatments. After inoculation the plants were kept in 100% relative humidity (one day in a dark dew chamber followed by two to three days in a lighted dew chamber) to permit spores to germinate and infect the leaf. The plants were then transferred to a greenhouse for disease to develop.
The following table presents the activity of typical compounds of the present disclosure when evaluated in these experiments. The effectiveness of the test compounds in controlling disease was determined by assessing the severity of disease on treated plants, then converting the severity to percent control based on the level of disease on untreated, inoculated plants.
In each case of Table II the rating scale is as follows: […]

[2] = 24 h, One-Day Protectant (1DP), 100 ppm, wheat plants (variety Yuma), percent control vs untreated inoculated plants, read-out: SEPTTR 100 PPM 1DP (% Disease Control rating)
[3] = 72 h, Three-Day Curative (3DC), 100 ppm, wheat plants (variety Yuma), percent control vs untreated inoculated plants, read-out: SEPTTR 100 PPM 3DC (% Disease Control rating)
[4] = 24 h, read-out: SEPTTR 100 PPM 1DP (% Disease Control rating)
[5] = 72 h, read-out: SEPTTR 100 PPM 3DC (% Disease Control rating)

| SMILES | melting point | pest or weed control at 100 ppm [1, 2] [%] | pest or weed control at 100 ppm [1, 3] [%] | pest or weed control at 100 ppm [1, 4] [%] | pest or weed control at 100 ppm [1, 5] [%] |
| --- | --- | --- | --- | --- | --- |
| O=C(Nc1nc(=O)n(S(=O)(=O)c2ccc(Cl)cc2)cc1F)Oc1ccccc1 | 192 to 195 °C | – | – | – | – |
| CN(C)/C=N/c1nc(=O)n(S(=O)(=O)c2ccccc2)cc1F [Cmpd 1, N′-(1-benzenesulfonyl-5-fluoro-2-oxo-1,2-dihydro-pyrimidin-4-yl)-N,N-dimethylformamidine] | 203 to 204 °C | 76 to 100 | 76 to 100 | – | – |
| CN(C)/C=N/c1nc(=O)n(S(=O)(=O)c2ccc(Cl)cc2)cc1F [Cmpd 2, N′-[1-(4-chloro-benzenesulfonyl)-5-fluoro-2-oxo-1,2-dihydro-pyrimidin-4-yl]-N,N-dimethylformamidine] | 207 to 210 °C | 76 to 100 | 76 to 100 | – | – |
| Cc1ccc(S(=O)(=O)n2cc(F)c(/N=C/N(C)C)nc2=O)cc1 [Cmpd 4] | 199 to 203 °C | 76 to 100 | 76 to 100 | – | – |
| COc1ccc(S(=O)(=O)n2cc(F)c(/N=C/N(C)C)nc2=O)cc1 [Cmpd 5] | 188 to 190 °C | 76 to 100 | 76 to 100 | – | – |
| CN(C)/C=N/c1nc(=O)n(S(=O)(=O)c2cccs2)cc1F [Cmpd 7] | 205 to 207 °C | 76 to 100 | 76 to 100 | – | – |
| Nc1nc(=O)n(S(=O)(=O)c2ccc(Cl)cc2)cc1F [Cmpd 8, 4-amino-1-(4-chloro-benzenesulfonyl)-5-fluoro-1H-pyrimidin-2-one] | – | 76 to 100 | 76 to 100 | – | – |
| Cc1cc(S(=O)(=O)n2cc(F)c(N)nc2=O)ccc1Oc1ncc(C(F)(F)F)cc1Cl [Cmpd 22] | – | 76 to 100 | 76 to 100 | – | – |
| Cc1cc(Oc2ncc(C(F)(F)F)cc2Cl)ccc1S(=O)(=O)n1cc(F)c(N)nc1=O [Cmpd 23] | 132 °C (dec.) | 76 to 100 | 76 to 100 | – | – |
| CN(C)/C=N/c1nc(=O)n(S(=O)(=O)c2cn(C)cn2)cc1F [Cmpd 28, N′-[5-fluoro-1-(1-methyl-1H-imidazole-4-sulfonyl)-2-oxo-1,2-dihydro-pyrimidin-4-yl]-N,N-dimethylformamidine] | – | 26 to 50 | 51 to 75 | – | – |
| CN(C)/C=N/c1nc(=O)n(S(=O)(=O)c2c(Cl)cccc2Cl)cc1F [Cmpd 29] | 207 to 211 °C | 76 to 100 | 76 to 100 | – | – |
| Cc1ccc(CS(=O)(=O)n2cc(F)c(/N=C/N(C)C)nc2=O)cc1 [Cmpd 32] | 150 to 152 °C | – | – | – | – |
| O=C(Nc1nc(=O)n(S(=O)(=O)c2ccccc2)cc1F)c1ccccc1 [Cmpd 33, N-(1-benzenesulfonyl-5-fluoro-2-oxo-1,2-dihydro-pyrimidin-4-yl)-benzamide] | – | – | – | 76 to 100 | 26 to 50 |
| CC(=O)Nc1nc(=O)n(S(=O)(=O)c2ccc(Cl)cc2)cc1F [Cmpd 34] | 159 to 162 °C | 76 to 100 | 76 to 100 | – | – |
| CC(C)(C)C(=O)Nc1nc(=O)n(S(=O)(=O)c2ccc(Cl)cc2)cc1F [Cmpd 36] | 129 to 132 °C | 76 to 100 | 76 to 100 | – | – |
| O=C(Nc1nc(=O)n(S(=O)(=O)c2ccc(Cl)cc2)cc1F)c1ccccc1 [Cmpd 37] | 156 to 159 °C | 76 to 100 | 26 to 50 | – | – |
| O=C(Nc1nc(=O)n(S(=O)(=O)c2ccc(Cl)cc2)cc1F)c1ccc(Cl)cc1 [Cmpd 38, 4-chloro-N-[1-(4-chlorobenzenesulfonyl)-5-fluoro-2-oxo-1,2-dihydropyrimidin-4-yl]benzamideamide] | – | 76 to 100 | 0 to 25 | – | – |
| Cc1ccc(C(=O)Nc2nc(=O)n(S(=O)(=O)c3ccc(Cl)cc3)cc2F)cc1 [Cmpd 39] | 156 to 158 °C | 0 to 25 | 76 to 100 | – | – |
| O=C(Nc1ccccc1)Nc1nc(=O)n(S(=O)(=O)c2ccccc2)cc1F [Cmpd 40, 1-(1-benzenesulfonyl-5-fluoro-2-oxo-1,2-dihydropyrimidin-4-yl)-3-phenylurea] | 210 to 214 °C | – | – | 0 to 25 | 26 to 50 |
| O=C(Nc1ccccc1)Nc1nc(=O)n(S(=O)(=O)c2ccc(Cl)cc2)cc1F [Cmpd 41] | 211 to 214 °C | – | – | – | – |
| O=C(Nc1ccccc1)Nc1nc(=O)n(S(=O)(=O)c2c(Cl)cccc2Cl)cc1F [Cmpd 42] | 205 to 210 °C | 0 to 25 | 26 to 50 | – | – |
| COc1ccc(S(=O)(=O)n2cc(F)c(NC(=O)Nc3ccccc3)nc2=O)cc1 [Cmpd 43] | 185 to 191 °C | 0 to 25 | 26 to 50 | – | – |
| O=c1nc(NC(=S)Nc2ccccc2)c(F)cn1S(=O)(=O)c1ccccc1 [Cmpd 44, (1-benzenesulfonyl-5-fluoro-2-oxo-1,2-dihydropyrimidin-4-yl)-3-phenylthiourea] | 205 to 208 °C | – | – | 0 to 25 | 26 to 50 |
| COc1ccc(S(=O)(=O)n2cc(F)c(NC(=S)Nc3ccccc3)nc2=O)cc1 [Cmpd 45] | 190 to 195 °C | 26 to 50 | 51 to 75 | – | – |

Further lines, with some results ahead:

| melting point | SMILES | pest or weed control at 100 ppm [1, 2] [%] | pest or weed control at 100 ppm [1, 3] [%] | pest or weed control at 100 ppm [1, 4] [%] | pest or weed control at 100 ppm [1, 5] [%] |
| --- | --- | --- | --- | --- | --- |
| 133 to 134 °C | CN(C)/C=N/c1nc(=O)n(S(C)(=O)=O)cc1F [Cmpd 3] | 76 to 100 | 76 to 100 | – | – |
| 144 to 145 °C | CCCS(=O)(=O)n1cc(F)c(/N=C/N(C)C)nc1=O [Cmpd 6] | 76 to 100 | 76 to 100 | – | – |
| 187 to 189 °C | Nc1nc(=O)n(S(=O)(=O)c2cccs2)cc1F [Cmpd 9] | 76 to 100 | 76 to 100 | – | – |
| 144 to 146 °C | CCCS(=O)(=O)n1cc(F)c(N)nc1=O [Cmpd 10] | 76 to 100 | 76 to 100 | – | – |
| 235 to 237 °C | Cn1cnc(S(=O)(=O)n2cc(F)c(N)nc2=O)c1 [Cmpd 11] | 26 to 50 | 26 to 50 | – | – |
| 172 to 174 °C | Nc1nc(=O)n(S(=O)(=O)Cc2ccccc2)cc1F [Cmpd 12] | 76 to 100 | 76 to 100 | – | – |
| 229 to 230 °C | Nc1nc(=O)n(S(=O)(=O)c2ccc(Cl)cc2Cl)cc1F [Cmpd 13] | 76 to 100 | 76 to 100 | – | – |
| 202 to 204 °C | Nc1nc(=O)n(S(=O)(=O)c2ccc(C(F)(F)F)cc2)cc1F [Cmpd 14] | 76 to 100 | 76 to 100 | – | – |
| 220 to 223 °C | CS(=O)(=O)c1ccc(S(=O)(=O)n2cc(F)c(N)nc2=O)cc1 [Cmpd 15] | 51 to 75 | 76 to 100 | – | – |
| 210 °C | N#Cc1ccc(S(=O)(=O)n2cc(F)c(N)nc2=O)cc1 [Cmpd 16] | 51 to 75 | 76 to 100 | – | – |
| 206 to 207 °C | Nc1nc(=O)n(S(=O)(=O)c2ccc(Cl)c(Cl)c2)cc1F [Cmpd 17] | 76 to 100 | 76 to 100 | – | – |
| 209 to 212 °C | Nc1nc(=O)n(S(=O)(=O)c2c(Cl)cccc2Cl)cc1F [Cmpd 18] | 76 to 100 | 76 to 100 | – | – |
| 156 to 159 °C | Nc1nc(=O)n(S(=O)(=O)Cc2ccc(Br)cc2)cc1F [Cmpd 19] | 76 to 100 | 76 to 100 | – | – |
| 168 to 170 °C | Nc1nc(=O)n(S(=O)(=O)Cc2ccc(Cl)cc2)cc1F [Cmpd 20] | – | – | – | – |
| 164 to 166 °C | Cc1ccc(CS(=O)(=O)n2cc(F)c(N)nc2=O)cc1 [Cmpd 21] | – | – | – | – |
| 195 to 196 °C | Nc1nc(=O)n(S(=O)(=O)c2ccccc2)cc1F [Cmpd 24] | 76 to 100 | 76 to 100 | – | – |
| 208 to 210 °C | Cc1ccc(S(=O)(=O)n2cc(F)c(N)nc2=O)cc1 [Cmpd 25] | 76 to 100 | 76 to 100 | – | – |
| 182.5 °C | COc1ccc(S(=O)(=O)n2cc(F)c(N)nc2=O)cc1 [Cmpd 26] | 76 to 100 | 76 to 100 | – | – |
| 181 to 184 °C | CS(=O)(=O)n1cc(F)c(N)nc1=O [Cmpd 27] | 76 to 100 | 76 to 100 | – | – |
| 152 to 154 °C | CN(C)/C=N/c1nc(=O)n(S(=O)(=O)Cc2ccccc2)cc1F [Cmpd 30] | – | – | – | – |
| 140 to 143 °C | CN(C)/C=N/c1nc(=O)n(S(=O)(=O)Cc2ccc(Cl)cc2)cc1F [Cmpd 31] | – | – | – | – |
| 148 to 154 °C (dec.) | CCC(=O)Nc1nc(=O)n(S(=O)(=O)c2ccc(Cl)cc2)cc1F [Cmpd 35] | 76 to 100 | 76 to 100 | – | – |

Source: patent US9862686B2, “N1-sulfonyl-5-fluoropyrimidinone derivatives” (Adama Makhteshim Ltd., priority 2009, dated 2018)
